Test results published in patent US10844077B2, “Thiazolyl-containing compounds for treating proliferative diseases” (Dana-Farber Cancer Institute, Inc., priority 2014, dated 2020).
Several values for one entry are separate records, joined by “and”; a condition that tells them apart may be missing. Identical values can stand only once.

Columns and labels:
Assay in all cases: KINATIV assay of compounds I-3 and I-9, lysate directly labeled with ATP-biotin probe (no GF)
Format in all cases: cell-based
kinases in BCWM.1 cells [1] = target: kinases in BCWM.1 cells (Homo sapiens, UniProt Q9UHD2); details: TBK1; Lys1; 1 μM, 90 min; no GF
Description: (§1) The cells were harvested and lysed. […] Bound kinases were identified and quantitated by ACTIVX as described in Patricelli et al., Biochemistry, 2007, 46(2): 350-358. The compounds were tested in duplicates against duplicate or quadruplicate control samples.

kinases in BCWM.1 cells [2] = target: kinases in BCWM.1 cells (Homo sapiens, UniProt P51812); details: Lys2, 1 μM, 90 min, no GF
Description: as §1

kinases in BCWM.1 cells [3] = target: kinases in BCWM.1 cells (Homo sapiens, UniProt Q9UBF8); details: PI4KB; ATP; 1 μM, 90 min; no GF
Description: as §1

kinases in BCWM.1 cells [4] = target: kinases in BCWM.1 cells (Homo sapiens, UniProt Q9UL54); details: TAO2; Lys2; 1 μM, 90 min; no GF
Description: as §1

kinases in BCWM.1 cells [5] = target: kinases in BCWM.1 cells (Homo sapiens, UniProt Q96PY6); details: NEK1; Lys2; 1 μM, 90 min; no GF
Description: as §1

kinases in BCWM.1 cells [6] = target: kinases in BCWM.1 cells (Homo sapiens, UniProt Q9BYT3); details: STK33; Lys2; 1 μM, 90 min; no GF
Description: as §1

kinases in BCWM.1 cells [7] = target: kinases in BCWM.1 cells (Homo sapiens, UniProt O15530); details: PDK1; Lys1; 1 μM, 90 min; no GF
Description: as §1

kinases in BCWM.1 cells [8] = target: kinases in BCWM.1 cells (Homo sapiens, UniProt P53350); details: PLK1; Lys1; 1 μM, 90 min; no GF
Description: as §1

kinases in BCWM.1 cells [9] = target: kinases in BCWM.1 cells (Homo sapiens, UniProt Q9Y2H1); details: NDR2; Lys2; 1 μM, 90 min; no GF
Description: as §1

kinases in BCWM.1 cells [10] = target: kinases in BCWM.1 cells (Homo sapiens, UniProt P19525); details: PKR; Lys2; 1 μM, 90 min; no GF
Description: as §1

kinases in BCWM.1 cells [11] = target: kinases in BCWM.1 cells (Homo sapiens, UniProt Q9Y2I7); details: PIP5K3; ATP; 1 μM, 90 min; no GF
Description: as §1

kinases in BCWM.1 cells [12] = details: 1 μM, no GF
Description: as §1

kinases in BCWM.1 cells [13] = target: kinases in BCWM.1 cells (Homo sapiens, UniProt P30291); details: Wee1; Lys2; 1 μM, 90 min; no GF
Description: as §1

kinases in BCWM.1 cells [14] = target: kinases in BCWM.1 cells (Homo sapiens, UniProt Q9NZJ5); details: PEK; Lys2; 1 μM, 90 min; no GF
Description: as §1

kinases in BCWM.1 cells [15] = target: kinases in BCWM.1 cells (Homo sapiens, UniProt Q16539); details: p38a, 1 μM, 90 min, no GF
Description: as §1

kinases in BCWM.1 cells [16] = target: kinases in BCWM.1 cells (Homo sapiens, UniProt Q9H2G2); details: SLK; Lys2; 1 μM, 90 min; no GF
Description: as §1

kinases in BCWM.1 cells [17] = target: kinases in BCWM.1 cells (Homo sapiens, UniProt Q7RTN6); details: STLK5; Activation Loop; 1 μM, 90 min; no GF
Description: as §1

kinases in BCWM.1 cells [18] = target: kinases in BCWM.1 cells (Homo sapiens, UniProt P23443); details: p70S6K; Lys2; 1 μM, 90 min; no GF
Description: as §1

kinases in BCWM.1 cells [19] = target: kinases in BCWM.1 cells (Homo sapiens, UniProt Q9UKI8); details: TLK1; Lys2; 1 μM, 90 min; no GF
Description: as §1

kinases in BCWM.1 cells [20] = target: kinases in BCWM.1 cells (Homo sapiens, UniProt Q13523); details: PRP4; Lys2; 1 μM, 90 min; no GF
Description: as §1

kinases in BCWM.1 cells [21] = target: kinases in BCWM.1 cells (Homo sapiens, UniProt Q6PHR2); details: ULK3; Lys2; 1 μM, 90 min; no GF
Description: as §1

kinases in BCWM.1 cells [22] = target: kinases in BCWM.1 cells (Homo sapiens, UniProt Q8TD19); details: NEK9; Lys2; 1 μM, 90 min; no GF
Description: as §1

kinases in BCWM.1 cells [23] = target: kinases in BCWM.1 cells (Homo sapiens, UniProt Q15208); details: NDR1; Lys2; 1 μM, 90 min; no GF
Description: as §1

kinases in BCWM.1 cells [24] = target: kinases in BCWM.1 cells (Homo sapiens, UniProt O00329); details: PIK3CD; ATP; 1 μM, 90 min; no GF
Description: as §1

kinases in BCWM.1 cells [25] = target: kinases in BCWM.1 cells (Homo sapiens, UniProt Q96S44); details: PRPK; ATP Loop; 1 μM, 90 min; no GF
Description: as §1

kinases in BCWM.1 cells [26] = target: kinases in BCWM.1 cells (Homo sapiens, UniProt O95819); details: ZC1/HGK; Lys1; 1 μM, 90 min; no GF
Description: as §1

Chain of kinases in BCWM.1 cells (Homo sapiens, UniProt Q16539) (Q16539 2-360 limits assumed): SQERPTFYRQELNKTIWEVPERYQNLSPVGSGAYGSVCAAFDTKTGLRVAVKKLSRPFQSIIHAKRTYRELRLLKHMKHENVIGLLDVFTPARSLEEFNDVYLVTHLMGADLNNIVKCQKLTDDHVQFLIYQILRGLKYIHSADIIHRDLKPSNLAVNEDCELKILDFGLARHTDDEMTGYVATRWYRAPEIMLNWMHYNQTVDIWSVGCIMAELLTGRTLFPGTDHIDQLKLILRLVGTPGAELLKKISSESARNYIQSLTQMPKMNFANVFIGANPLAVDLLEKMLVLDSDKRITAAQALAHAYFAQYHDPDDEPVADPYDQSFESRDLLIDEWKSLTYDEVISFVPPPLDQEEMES
Chain of kinases in BCWM.1 cells (Homo sapiens, UniProt Q13523) (Q13523 2-1007 limits assumed): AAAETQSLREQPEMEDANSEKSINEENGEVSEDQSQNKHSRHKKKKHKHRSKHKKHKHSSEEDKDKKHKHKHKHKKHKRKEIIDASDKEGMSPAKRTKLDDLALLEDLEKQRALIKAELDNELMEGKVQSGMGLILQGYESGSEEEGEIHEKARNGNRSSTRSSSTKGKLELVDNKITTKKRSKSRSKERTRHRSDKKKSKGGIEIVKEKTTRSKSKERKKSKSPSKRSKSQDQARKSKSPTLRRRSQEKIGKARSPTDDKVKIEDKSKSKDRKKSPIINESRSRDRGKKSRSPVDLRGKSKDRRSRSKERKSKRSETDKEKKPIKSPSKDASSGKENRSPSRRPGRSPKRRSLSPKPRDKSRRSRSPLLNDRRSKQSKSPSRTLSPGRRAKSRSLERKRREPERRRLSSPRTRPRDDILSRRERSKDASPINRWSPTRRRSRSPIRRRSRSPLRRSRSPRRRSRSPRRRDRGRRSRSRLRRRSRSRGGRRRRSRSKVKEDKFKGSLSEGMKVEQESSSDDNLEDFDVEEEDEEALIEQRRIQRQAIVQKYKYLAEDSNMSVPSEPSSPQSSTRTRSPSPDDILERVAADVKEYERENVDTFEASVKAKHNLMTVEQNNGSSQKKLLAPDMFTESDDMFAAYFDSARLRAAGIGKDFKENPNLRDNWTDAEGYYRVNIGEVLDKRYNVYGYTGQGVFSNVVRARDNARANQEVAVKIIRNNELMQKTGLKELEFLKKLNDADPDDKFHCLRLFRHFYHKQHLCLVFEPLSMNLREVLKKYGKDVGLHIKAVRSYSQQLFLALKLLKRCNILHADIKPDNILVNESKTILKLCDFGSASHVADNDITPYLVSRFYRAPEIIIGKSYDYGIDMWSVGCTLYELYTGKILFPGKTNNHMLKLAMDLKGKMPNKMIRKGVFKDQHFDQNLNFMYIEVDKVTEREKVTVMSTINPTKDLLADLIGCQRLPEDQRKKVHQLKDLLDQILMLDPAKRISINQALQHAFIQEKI
Chain of kinases in BCWM.1 cells (Homo sapiens, UniProt Q15208) (Q15208 2-465 limits assumed): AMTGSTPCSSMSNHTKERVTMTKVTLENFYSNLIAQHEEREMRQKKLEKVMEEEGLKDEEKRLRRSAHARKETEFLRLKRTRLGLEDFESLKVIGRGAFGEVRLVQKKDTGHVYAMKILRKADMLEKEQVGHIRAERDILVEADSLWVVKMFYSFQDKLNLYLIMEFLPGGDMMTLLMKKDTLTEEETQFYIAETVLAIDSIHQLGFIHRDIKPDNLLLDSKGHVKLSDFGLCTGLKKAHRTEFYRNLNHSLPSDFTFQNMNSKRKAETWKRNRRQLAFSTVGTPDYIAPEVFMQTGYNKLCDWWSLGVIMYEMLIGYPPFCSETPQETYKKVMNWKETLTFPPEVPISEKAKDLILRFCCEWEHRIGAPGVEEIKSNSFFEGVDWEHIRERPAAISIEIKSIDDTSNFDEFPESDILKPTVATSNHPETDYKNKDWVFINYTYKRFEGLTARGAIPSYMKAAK
Chain of kinases in BCWM.1 cells (Homo sapiens, UniProt Q9Y2I7) (Q9Y2I7 2-2098 limits assumed): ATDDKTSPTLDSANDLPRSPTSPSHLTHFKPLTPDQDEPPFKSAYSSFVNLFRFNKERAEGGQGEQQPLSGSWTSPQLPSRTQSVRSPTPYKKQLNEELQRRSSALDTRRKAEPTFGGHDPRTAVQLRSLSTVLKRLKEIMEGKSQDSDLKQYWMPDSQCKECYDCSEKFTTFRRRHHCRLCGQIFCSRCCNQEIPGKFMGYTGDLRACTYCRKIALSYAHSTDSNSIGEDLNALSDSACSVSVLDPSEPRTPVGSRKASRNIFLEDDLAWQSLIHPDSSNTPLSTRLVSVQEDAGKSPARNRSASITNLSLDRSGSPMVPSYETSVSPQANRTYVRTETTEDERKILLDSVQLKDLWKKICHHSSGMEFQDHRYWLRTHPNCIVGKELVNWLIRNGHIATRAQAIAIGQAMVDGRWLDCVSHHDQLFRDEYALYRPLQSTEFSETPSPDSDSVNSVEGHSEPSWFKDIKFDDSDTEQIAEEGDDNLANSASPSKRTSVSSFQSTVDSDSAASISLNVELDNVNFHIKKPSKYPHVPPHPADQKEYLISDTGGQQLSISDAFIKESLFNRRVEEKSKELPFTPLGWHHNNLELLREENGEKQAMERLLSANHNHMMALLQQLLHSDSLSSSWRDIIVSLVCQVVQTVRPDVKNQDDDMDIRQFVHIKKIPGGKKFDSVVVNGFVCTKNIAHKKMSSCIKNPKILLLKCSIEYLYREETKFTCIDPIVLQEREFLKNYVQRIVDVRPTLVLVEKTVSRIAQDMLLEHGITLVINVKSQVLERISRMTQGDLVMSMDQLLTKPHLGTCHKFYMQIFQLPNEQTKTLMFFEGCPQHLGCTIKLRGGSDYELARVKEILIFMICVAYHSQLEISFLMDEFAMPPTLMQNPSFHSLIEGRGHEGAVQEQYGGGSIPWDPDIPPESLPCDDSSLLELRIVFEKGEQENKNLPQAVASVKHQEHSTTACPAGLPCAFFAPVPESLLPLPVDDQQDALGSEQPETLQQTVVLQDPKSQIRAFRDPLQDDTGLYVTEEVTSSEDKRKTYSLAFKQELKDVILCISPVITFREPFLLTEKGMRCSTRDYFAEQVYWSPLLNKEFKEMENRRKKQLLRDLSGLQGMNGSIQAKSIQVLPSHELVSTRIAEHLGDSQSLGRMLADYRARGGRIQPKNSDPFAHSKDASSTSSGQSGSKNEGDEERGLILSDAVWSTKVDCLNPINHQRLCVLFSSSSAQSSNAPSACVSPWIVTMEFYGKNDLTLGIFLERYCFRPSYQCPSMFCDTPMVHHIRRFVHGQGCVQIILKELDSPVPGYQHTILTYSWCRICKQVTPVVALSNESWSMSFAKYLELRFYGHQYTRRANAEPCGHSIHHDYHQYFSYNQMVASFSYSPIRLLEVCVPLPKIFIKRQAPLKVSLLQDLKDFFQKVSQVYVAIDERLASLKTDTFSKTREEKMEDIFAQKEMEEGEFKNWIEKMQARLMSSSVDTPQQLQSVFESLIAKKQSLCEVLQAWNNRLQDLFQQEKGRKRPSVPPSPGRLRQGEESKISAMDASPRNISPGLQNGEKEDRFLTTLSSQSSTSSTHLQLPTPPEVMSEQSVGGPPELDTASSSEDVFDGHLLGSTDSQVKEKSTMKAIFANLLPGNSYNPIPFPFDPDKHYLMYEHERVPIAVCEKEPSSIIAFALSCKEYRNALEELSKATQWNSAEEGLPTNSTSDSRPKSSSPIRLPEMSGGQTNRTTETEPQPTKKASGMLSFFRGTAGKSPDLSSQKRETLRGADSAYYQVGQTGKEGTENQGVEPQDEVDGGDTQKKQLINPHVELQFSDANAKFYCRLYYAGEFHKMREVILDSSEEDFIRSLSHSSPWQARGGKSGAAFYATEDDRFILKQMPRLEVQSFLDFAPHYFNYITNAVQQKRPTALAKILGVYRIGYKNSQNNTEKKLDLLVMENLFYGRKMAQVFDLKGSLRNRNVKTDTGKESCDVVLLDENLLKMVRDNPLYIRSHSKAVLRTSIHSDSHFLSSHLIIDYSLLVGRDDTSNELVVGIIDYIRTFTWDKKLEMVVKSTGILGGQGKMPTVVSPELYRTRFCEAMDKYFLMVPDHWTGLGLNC
Chain of kinases in BCWM.1 cells (Homo sapiens, UniProt Q8TD19) (Q8TD19 2-979 limits assumed): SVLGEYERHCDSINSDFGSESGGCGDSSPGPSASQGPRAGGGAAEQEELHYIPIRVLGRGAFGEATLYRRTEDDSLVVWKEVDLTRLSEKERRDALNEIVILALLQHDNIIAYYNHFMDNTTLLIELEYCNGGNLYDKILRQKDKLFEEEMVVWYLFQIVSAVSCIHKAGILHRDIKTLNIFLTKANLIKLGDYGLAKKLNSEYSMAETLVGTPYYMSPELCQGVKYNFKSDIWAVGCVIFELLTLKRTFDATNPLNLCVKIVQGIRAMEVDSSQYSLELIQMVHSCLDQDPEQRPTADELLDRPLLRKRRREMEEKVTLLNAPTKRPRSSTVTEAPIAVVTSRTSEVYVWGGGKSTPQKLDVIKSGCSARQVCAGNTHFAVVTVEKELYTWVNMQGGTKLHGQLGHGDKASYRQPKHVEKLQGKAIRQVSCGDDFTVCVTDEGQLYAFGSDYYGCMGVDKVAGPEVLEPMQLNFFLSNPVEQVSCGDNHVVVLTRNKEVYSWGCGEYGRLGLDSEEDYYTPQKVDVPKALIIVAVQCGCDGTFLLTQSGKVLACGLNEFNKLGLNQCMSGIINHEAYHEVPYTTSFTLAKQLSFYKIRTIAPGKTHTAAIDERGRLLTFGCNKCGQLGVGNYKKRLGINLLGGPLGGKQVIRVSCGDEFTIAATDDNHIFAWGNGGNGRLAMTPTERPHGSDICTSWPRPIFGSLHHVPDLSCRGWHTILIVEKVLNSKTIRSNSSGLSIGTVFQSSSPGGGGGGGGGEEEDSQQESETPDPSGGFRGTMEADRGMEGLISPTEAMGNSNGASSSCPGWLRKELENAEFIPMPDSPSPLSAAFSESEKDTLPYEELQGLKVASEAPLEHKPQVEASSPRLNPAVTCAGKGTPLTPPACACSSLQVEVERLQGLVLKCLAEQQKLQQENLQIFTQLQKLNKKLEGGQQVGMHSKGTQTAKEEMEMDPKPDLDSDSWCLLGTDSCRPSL

C=CC(=O)N1CC[C@H](Nc2nccc(Nc3ncc(C(=O)Nc4c(C)cccc4C)s3)n2)C1 [Example I-3]
% change of MS signal compared to control sample (kinases in BCWM.1 cells [1]): −25.1% | % change of MS signal compared to control sample (kinases in BCWM.1 cells [2]; RSK2 domain1): −2% | % change of MS signal compared to control sample (kinases in BCWM.1 cells [2]; RSK2 domain2): −10.2% | % change of MS signal compared to control sample (kinases in BCWM.1 cells [3]): 6.4% | % change of MS signal compared to control sample (kinases in BCWM.1 cells [4]): 5% | % change of MS signal compared to control sample (kinases in BCWM.1 cells [5]): 7.4% | % change of MS signal compared to control sample (kinases in BCWM.1 cells [6]): −6.1% | % change of MS signal compared to control sample (kinases in BCWM.1 cells [7]): −8.4% | % change of MS signal compared to control sample (kinases in BCWM.1 cells [8]): 0.2% | % change of MS signal compared to control sample (kinases in BCWM.1 cells [9]): 11.6% | % change of MS signal compared to control sample (kinases in BCWM.1 cells [10]): −3.6% | % change of MS signal compared to control sample (kinases in BCWM.1 cells [11]): 6.5% | % change of MS signal compared to control sample (kinases in BCWM.1 cells [12]; ABL, ARG, Activation Loop): 75.4% and 93.5% | % change of MS signal compared to control sample (kinases in BCWM.1 cells [12]; ABL, ARG, Lys1): 86.9% and 93.2% | % change of MS signal compared to control sample (kinases in BCWM.1 cells [12]; AKT2, AKT3, ATP Loop): −19.2% and −14.5% | % change of MS signal compared to control sample (kinases in BCWM.1 cells [12]; AurA, AurB, AurC, ATP Loop): 7.7% and 4.7% | % change of MS signal compared to control sample (kinases in BCWM.1 cells [12]; FYN, SRC, YES, Activation Loop): 87.3% and 85.7% | % change of MS signal compared to control sample (kinases in BCWM.1 cells [12]; MARK3, MARK4, Lys1): 2.5% and −4% | % change of MS signal compared to control sample (kinases in BCWM.1 cells [12]; MER, TYRO3, Activation Loop): 2.4% and 0.4% | % change of MS signal compared to control sample (kinases in BCWM.1 cells [12]; MST4, YSK1, Lys2, 90 min): 18.1% | % change of MS signal compared to control sample (kinases in BCWM.1 cells [12]; NEK6, NEK7, Lys2, 90 min): 6.4% | % change of MS signal compared to control sample (kinases in BCWM.1 cells [12]; PCTAIRE2, PCTAIRE3, Lys1, 90 min): −0.4% | % change of MS signal compared to control sample (kinases in BCWM.1 cells [12]; PI4KA, PI4KAP2, ATP, 90 min): −3.7% | % change of MS signal compared to control sample (kinases in BCWM.1 cells [12]; PKACa, PKCb, Lys2, 90 min): 2.4% | % change of MS signal compared to control sample (kinases in BCWM.1 cells [12]; ROCK1, ROCK2, Lys2, 90 min): −22.2% | % change of MS signal compared to control sample (kinases in BCWM.1 cells [12]; RSK1 domain1, RSK2 domain1, RSK3 domain1, Lys2, 90 min): −14.8% | % change of MS signal compared to control sample (kinases in BCWM.1 cells [12]; SRPK1, SRPK2, Lys1, 90 min): −3% | % change of MS signal compared to control sample (kinases in BCWM.1 cells [12]; TAO1, TAO3, Lys2, 90 min): 7.8% | % change of MS signal compared to control sample (kinases in BCWM.1 cells [12]; Wnk1, Wnk2, Wnk3, Lys2, 90 min): 14.9% | % change of MS signal compared to control sample (kinases in BCWM.1 cells [12]; Wnk1, Wnk2, ATP Loop, 90 min): 13.1% | % change of MS signal compared to control sample (kinases in BCWM.1 cells [12]; ZC1/HGK, ZC2/TNIK, ZC3/MINK, Lys2, 90 min): 2.7% | % change of MS signal compared to control sample (kinases in BCWM.1 cells [12]; p38d, p38g, Lys2, 90 min): 5.7% | % change of MS signal compared to control sample (kinases in BCWM.1 cells [13]): −32.7% | % change of MS signal compared to control sample (kinases in BCWM.1 cells [14]): −12.8% | % change of MS signal compared to control sample (kinases in BCWM.1 cells [15]; Lys2): 43.5% | % change of MS signal compared to control sample (kinases in BCWM.1 cells [15]; Protein Kinase Domain): 32.6% | % change of MS signal compared to control sample (kinases in BCWM.1 cells [16]): 13% | % change of MS signal compared to control sample (kinases in BCWM.1 cells [17]): 10.4% | % change of MS signal compared to control sample (kinases in BCWM.1 cells [18]): −77.2% | % change of MS signal compared to control sample (kinases in BCWM.1 cells [19]): −0.7% | % change of MS signal compared to control sample (kinases in BCWM.1 cells [20]): 5.9% | % change of MS signal compared to control sample (kinases in BCWM.1 cells [21]): 8.2% | % change of MS signal compared to control sample (kinases in BCWM.1 cells [22]): 15.4% | % change of MS signal compared to control sample (kinases in BCWM.1 cells [23]): 2.3% | % change of MS signal compared to control sample (kinases in BCWM.1 cells [24]): −3.4% | % change of MS signal compared to control sample (kinases in BCWM.1 cells [25]): 2.1% | % change of MS signal compared to control sample (kinases in BCWM.1 cells [26]): −14.8%
